Structures can show the parent of a compound that is named as a salt.
Key:
Type in all cases: in vivo, BALB/c nude mouse
[1] = test system: human ovarian cancer cell line ES-2; assay: Life-prolonging effect in nude mouse model for peritoneal disseminated metastasis (ES-2), intraperitoneal administration; details: once three days after tumor transplantation, observed until 80 days
Procedure: Therapeutic effects on peritoneal disseminated metastasis were tested by using a mouse model for peritoneal disseminated metastasis. Specifically, the mouse model for peritoneal disseminated metastasis was prepared by intraperitoneal injection of human ovarian cancer cell line ES-2 (1.0×10^6 cells) to an 8-week old BALB/c nude mouse.
In order to estimate advantageous life-prolonging effects of the present micelle preparation having encapsulated paclitaxel, the model mice were divided into three groups, i.e., 8 mice per group. […] In addition, the drug dosage was determined by converting a clinical dosage for intravenous route (paclitaxel 210 mg/m^2 and paclitaxel micelle preparation: 150 mg/m^2) to those for a mouse using an AUC comparison. […]
1 ml of saline (Control group); 1 ml of saline containing 66.7 mg/kg of irinotecan hydrochloride (66.7 mg/kg CPT-11 administered group); and 1 ml of 5% glucose solution containing the micelle preparation containing 30 mg/kg of SN-38 (30 mg/kg SN-38 micelle administered group) were intraperitoneally administered to the mouse of each group, respectively. […] In addition, the drug dosage was determined as the one-third of the maximum amount allowed for intravenous route administration for a mouse. […]

[2] = test system: human ovarian cancer cell line SHIN-3; assay: Life-prolonging effect in nude mouse model for peritoneal disseminated metastasis (SHIN-3), intraperitoneal administration
Procedure: In order to estimate an effect of intraperitoneal administration of the micelle preparation having encapsulated paclitaxel, a mouse model for peritoneal disseminated metastasis was prepared by intraperitoneal injection of human ovarian cancer cell line SHIN-3 (1.0×10^7 cells) to an 8-week old BALB/c nude mouse. Three groups were created as following: 1 ml of saline (Control group, 18 mice); 1 ml of saline containing […] of paclitaxel (100 mg/kg PTX administered group, 8 mice); and 1 ml of 5% glucose solution containing the micelle preparation containing 50 mg/ml of encapsulated paclitaxel (50 mg/kg PTX micelle administered group, 8 mice) were intraperitoneally administered to the mouse of each group, respectively. The amounts of the ingredients were of by 20 g mouse body weight. The administrations were carried out once after one week of the tumor transplantations. The mice were observed until 120 days after the cell transplantation. The survival rates were recorded and the survival curves was plotted in FIG. 3.

[3] = test system: human stomach cancer cell line MKN45-P; assay: Life-prolonging effect in nude mouse model for peritoneal disseminated metastasis (MKN45-P), intraperitoneal administration; details: 50 mg/kg, once three days after tumor transplantation, observed until 60 days
Procedure: In order to estimate an effect of intraperitoneal administration of a micelle preparation having encapsulated paclitaxel, a mouse model for peritoneal disseminated metastasis was prepared by intraperitoneal injection of human stomach cancer cell line MKN45-P (1.0×10^6 cells) to an 8-week old BALB/c nude mouse. Three groups were created as following: 1 ml of saline (Control group, 8 mice); 1 ml of saline containing 50 mg/ml of paclitaxel (50 mg/kg PTX administered group, 8 mice); and 1 ml of 5% glucose solution containing the micelle preparation containing 25 mg/ml of encapsulated paclitaxel (25 mg/kg PTX micelle administered group, 8 mice) were intraperitoneally administered to the mouse of each group, respectively. The amounts of the ingredients were of by 25 g mouse body weight. The administrations were carried out once after three days of the tumor transplantation. The mice were observed until 60 days after the cell transplantation. The survival rates was recorded and the survival curves was plotted in FIG. 4.

| Compound | 50% survival rate, day after transplantation ([1]; 66.7 mg/kg, Control Day 21) [days] | 50% survival rate, day after transplantation ([1]; 70 mg/kg, Control Day 17) [days] | toxic death ([2]; 100 mg/kg PTX administered group, 8 mice, once) | 50% survival rate, day after transplantation ([2]; 100 mg/kg, once one week after tumor transplantation, observed until 120 days) [days] | 50% survival rate, day after transplantation [3] [days] |
| --- | --- | --- | --- | --- | --- |
| CCc1c2c(nc3ccc(OC(=O)N4CCC(N5CCCCC5)CC4)cc13)-c1cc3c(c(=O)n1C2)COC(=O)[C@]3(O)CC [CPT-11, irinotecan hydrochloride] | 56 | – | – | – | – |
| CC(=O)O[C@H]1C(=O)[C@@]2(C)[C@H]([C@H](OC(=O)c3ccccc3)[C@]3(O)C[C@H](OC(=O)[C@H](O)[C@@H](NC(=O)c4ccccc4)c4ccccc4)C(C)=C1C3(C)C)[C@]1(OC(C)=O)CO[C@@H]1C[C@@H]2O [PTX, paclitaxel] | – | 44 | two cases of toxic death | 100 | 55 |

From US20140072604A1, “Block Copolymer For Intraperitoneal Administration Containing Anti-Cancer Agent, Micelle Preparation Thereof, And Cancer Therapeutic Agent Comprising The Micelle Preparation As Active Ingredient” (priority 2009, published 2014)
